Structures can show the parent of a compound that is named as a salt. Starred links: 1 amine or outer side, 2 acyl side, 3 side chain; linkers in the order of their positions; H or OH if unused. Non-standard residues stand in square brackets, D forms with d. Residues, ends and D or L forms follow the SMILES beside them. *: point of attachment. F(4OEtNHDOTA-Lu) = lutetium complex of (S)-2,2',2''-(10-(2-((2-(4-(2-amino-2-carboxyethyl)phenoxy)ethyl)amino)-2-oxoethyl)-1,4,7,10-tetraazacyclododecane-1,4,7-triyl)triacetic acid (Phe with 4-O-ethylamino-DOTA-Lu), O=C([O-])CN1CCN(CC(=O)[O-])CCN(CC(=O)NCCOc2ccc(C[C@H](N[*:1])C(=O)[*:2])cc2)CCN(CC(=O)[O-])CC1.[Lu+3]; F4(METRIAZOLYLMENHDOTA-Lu) = Phe with 4-(methyl-triazolyl-methyl-NH-DOTA), Lu complex; F(4OEtNHRDOTAGA-Ga) = Phe with 4-O-ethyl-NH-DOTAGA, Ga complex; DOTA = O=C(O)CN1CCN(CC(=O)O)CCN(CC(=O)*)CCN(CC(=O)O)CC1; Pyrrolidine(2S-CN,4,4-F2) = N#C[C@@H]1CC(F)(F)CN1*; Trp(7-Cl) = N[C@@H](Cc1c[nH]c2c(Cl)cccc12)C(=O)O; 3Pal(6-NH2) = Nc1ccc(C[C@H](N)C(=O)O)cn1; AEF = NCCOc1ccc(C[C@H](N)C(=O)O)cc1; X10 = O=C([C@H]1COCCN1[*:1])[*:2]; NMeF = CN[C@@H](Cc1ccccc1)C(=O)O; Aoc(2) = CCCCCC[C@H](N)C(=O)O; Ahp(2) = CCCCC[C@H](N)C(=O)O
Assays:
[1] = target: T1, mouse FAP (Mus musculus, UniProt P97321); assay: Enzymatic FAP competition assay (Z-Gly-Pro-AMC fluorescence), mouse FAP; type: biochemical; details: read-out: m. FAP, Enz., IC50
T1 construct: biotinylated His, Avi tag, mouse FAP (26-761, FAP-M82Q5); His; Avi tag (biotinylated); purchased AcroBiosystems FAP-M82Q5
T1 sequence (P97321 26-761): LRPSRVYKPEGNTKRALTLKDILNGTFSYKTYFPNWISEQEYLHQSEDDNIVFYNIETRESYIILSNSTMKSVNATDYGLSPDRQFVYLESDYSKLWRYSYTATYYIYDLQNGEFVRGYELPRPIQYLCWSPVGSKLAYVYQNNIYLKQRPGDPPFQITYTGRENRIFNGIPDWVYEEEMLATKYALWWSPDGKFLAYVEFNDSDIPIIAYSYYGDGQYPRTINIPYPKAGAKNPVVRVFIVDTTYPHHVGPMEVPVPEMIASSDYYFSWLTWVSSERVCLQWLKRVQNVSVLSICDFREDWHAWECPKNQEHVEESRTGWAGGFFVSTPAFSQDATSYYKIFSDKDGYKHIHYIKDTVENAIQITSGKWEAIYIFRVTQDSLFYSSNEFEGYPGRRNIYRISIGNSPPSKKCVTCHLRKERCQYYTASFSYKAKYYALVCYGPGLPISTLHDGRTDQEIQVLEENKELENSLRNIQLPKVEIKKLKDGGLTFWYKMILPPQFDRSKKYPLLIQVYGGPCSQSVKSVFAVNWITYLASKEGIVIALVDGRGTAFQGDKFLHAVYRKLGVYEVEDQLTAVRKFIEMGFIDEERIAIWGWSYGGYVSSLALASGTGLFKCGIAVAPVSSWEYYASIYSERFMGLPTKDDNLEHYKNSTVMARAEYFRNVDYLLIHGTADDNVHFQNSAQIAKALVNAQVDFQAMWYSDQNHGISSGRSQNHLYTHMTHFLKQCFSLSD
Outline: (§1)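 Biotinylated His/Avi-tagged FAP ectodomain (human 26-760, mouse 26-761) at 0.01 nM, preincubated 24 h with peptides (14 concentrations, up to 1 μM) in pH 7.5 phosphate, 150 mM NaCl, 0.05% Tween20, 1% DMSO. Then 50 μM Z-Gly-Pro-AMC, 4 h at 22-24° C; AMC fluorescence (380/460 nm) gave IC50 from duplicate points.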

[2] = target: T2, human FAP (Homo sapiens, UniProt Q12884); assay: Enzymatic FAP competition assay (Z-Gly-Pro-AMC fluorescence), human FAP; type: biochemical; details: read-out: h. FAP, Enz., IC50
T2 construct: the biotinylated His, Avi tag, human FAP (26-760, FAP-H82Q6); His; Avi tag (biotinylated); purchased AcroBiosystems FAP-H82Q6
T2 sequence (Q12884 26-760): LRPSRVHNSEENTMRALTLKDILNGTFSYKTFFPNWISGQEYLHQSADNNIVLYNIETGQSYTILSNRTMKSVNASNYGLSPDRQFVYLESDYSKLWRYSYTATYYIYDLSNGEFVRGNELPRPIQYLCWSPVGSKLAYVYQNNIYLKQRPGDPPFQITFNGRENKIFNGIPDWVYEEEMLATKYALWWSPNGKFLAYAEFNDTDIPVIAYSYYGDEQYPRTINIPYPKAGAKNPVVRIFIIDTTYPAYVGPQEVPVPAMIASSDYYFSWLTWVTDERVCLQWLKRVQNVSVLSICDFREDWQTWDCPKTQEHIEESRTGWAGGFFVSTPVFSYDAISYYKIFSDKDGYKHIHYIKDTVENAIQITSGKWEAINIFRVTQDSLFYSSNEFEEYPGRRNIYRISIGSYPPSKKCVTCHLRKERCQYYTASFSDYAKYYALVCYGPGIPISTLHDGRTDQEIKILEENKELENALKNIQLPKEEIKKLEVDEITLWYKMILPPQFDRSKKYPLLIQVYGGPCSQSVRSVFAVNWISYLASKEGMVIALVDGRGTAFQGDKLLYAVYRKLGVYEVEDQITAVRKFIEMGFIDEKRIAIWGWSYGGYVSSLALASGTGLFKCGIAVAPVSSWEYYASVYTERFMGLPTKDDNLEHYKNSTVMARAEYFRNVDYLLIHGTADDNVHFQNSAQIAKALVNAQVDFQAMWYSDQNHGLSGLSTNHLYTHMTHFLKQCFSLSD
Outline: as §1

[3] = target: T1, mouse FAP; assay: Surface plasmon resonance (SPR) for peptide affinity, mouse FAP; type: binding
Outline: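 Biotinylated His/Avi-tagged FAP ectodomains (human 26-760, mouse 26-761) captured or immobilized on Biacore sensor chips; peptides run at 25 °C in HBS-EP+ pH 7.6 with 2% DMSO, single-cycle kinetics, 8 concentrations. KD from 1:1 binding-model fit of sensorgrams.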

| IC50 [1] [nM] | IC50 [2] [nM] | Kd [3] [nM] | Compound |
| --- | --- | --- | --- |
| 0.048 | 0.012 | 0.037 | Gly-Gly-NMePhe-F(4OEtNHRDOTAGA-Ga)-Ahp-Trp-Gly-Tyr-Asp-D-Pro (cyclo(GG[NMeF][F(4OEtNHRDOTAGA-Ga)][Ahp(2)]WGYD[dP]); also: Ga complex of DOTAGA) [Example C38] |
| 0.71 | 0.27 | 0.222 | CCCCC[C@@H]1NC(=O)[C@H](Cc2ccc(O)cc2)NC(=O)[C@H](Cc2ccccc2)N(C)C(=O)CNC(=O)[C@H](CC(=O)O)NC(=O)[C@H]2CCCN2C(=O)[C@H](CC(=O)O)NC(=O)[C@H](Cc2ccc(O)cc2)NC(=O)CNC(=O)[C@H](Cc2c[nH]c3ccccc23)NC1=O [Example A18, Asp-Gly-NMePhe-Tyr-Ahp-Trp-Gly-Tyr-Asp-D-Pro] (cyclo([Ahp(2)]WGYD[dP]DG[NMeF]Y)) |
| 0.49 | 0.136 | 0.38 | CCCCC[C@@H]1NC(=O)[C@H](Cc2ccc(OCCN)cc2)NC(=O)[C@H](Cc2ccccc2)N(C)C(=O)CNC(=O)CNC(=O)[C@H]2CCCN2C(=O)[C@H](CC(=O)O)NC(=O)[C@H](Cc2ccc(O)cc2)NC(=O)CNC(=O)[C@H](Cc2c[nH]c3ccccc23)NC1=O [Example A59, Gly-Gly-NMePhe-F(4OEtNH2)-Ahp-Trp-Gly-Tyr-Asp-D-Pro, TFA salt] (cyclo([AEF][Ahp(2)]WGYD[dP]GG[NMeF])) |
| 0.158 | 0.04 | 0.106 | CCCCCC[C@@H]1NC(=O)[C@H](Cc2ccc(O)cc2)NC(=O)[C@H](Cc2ccccc2)N(C)C(=O)CNC(=O)[C@H](CCCCN)NC(=O)[C@H]2CCCN2C(=O)[C@H](CC(=O)O)NC(=O)[C@H](Cc2ccc(O)cc2)NC(=O)CNC(=O)[C@H](Cc2c[nH]c3ccccc23)NC1=O [Example A31, Lys-Gly-NMePhe-Tyr-Aoc-Trp-Gly-Tyr-Asp-D-Pro, TFA salt] (cyclo([Aoc(2)]WGYD[dP]KG[NMeF]Y)) |
| 0.47 | 0.121 | 0.222 | CCCCC[C@@H]1NC(=O)[C@H](Cc2ccc(O)cc2)NC(=O)[C@H](Cc2ccccc2)N(C)C(=O)CNC(=O)[C@@H](CO)NC(=O)[C@H]2CCCN2C(=O)[C@H](CC(=O)O)NC(=O)[C@H](Cc2ccc(O)cc2)NC(=O)CNC(=O)[C@H](Cc2c[nH]c3ccccc23)NC1=O [Example A69, D-Ser-Gly-NMePhe-Tyr-Ahp-Trp-Gly-Tyr-Asp-D-Pro] (cyclo([Ahp(2)]WGYD[dP][dS]G[NMeF]Y)) |
| 55 | 15 | 20 | CCCCC[C@@H]1NC(=O)[C@H](Cc2ccc(O)cc2)NC(=O)[C@H](Cc2ccccc2)N(C)C(=O)CNC(=O)CNC(=O)[C@H]2COCCN2C(=O)[C@H](CC(=O)O)NC(=O)[C@H](Cc2ccc(O)cc2)NC(=O)CNC(=O)[C@H](Cc2c[nH]c3ccccc23)NC1=O [Example A63, Gly-Gly-NMePhe-Tyr-Ahp-Trp-Gly-Tyr-Asp-Mor(3R-COOH)] (cyclo([Ahp(2)]WGYD[X10]GG[NMeF]Y)) |
| 0.032 | 0.011 | < 0.039 | hSer-Gly-NMePhe-F(4amPEG2NHDOTA-Lu)-hS(Pr)-Trp-Gly-K(COpipzaa)-Asp-D-Pro [Example C4] |
| 0.86 | 0.209 | 0.47 | CCCCC[C@@H]1NC(=O)[C@H](Cc2ccc(O)cc2)NC(=O)[C@H](Cc2ccccc2)N(C)C(=O)CNC(=O)[C@H](CCCCN)NC(=O)[C@H]2CCCN2C(=O)[C@H](CC(=O)O)NC(=O)[C@H](Cc2ccc(O)cc2)NC(=O)CNC(=O)[C@H](Cc2c[nH]c3c(Cl)cccc23)NC1=O [Example A25, Lys-Gly-NMePhe-Tyr-Ahp-W(7Cl)-Gly-Tyr-Asp-D-Pro, TFA salt] (cyclo([Ahp(2)][Trp(7-Cl)]GYD[dP]KG[NMeF]Y)) |
| 46 | 19 | 75 | CCCCC[C@@H]1NC(=O)[C@H](Cc2ccc(O)cc2)NC(=O)[C@H](Cc2ccccc2)N(C)C(=O)CNC(=O)CNC(=O)[C@H]2CCCN2C(=O)[C@H](CC(N)=O)NC(=O)[C@H](Cc2ccc(O)cc2)NC(=O)CNC(=O)[C@H](Cc2c[nH]c3ccccc23)NC1=O [Example A58, Gly-Gly-NMePhe-Tyr-Ahp-Trp-Gly-Tyr-Asn-D-Pro] (cyclo([Ahp(2)]WGYN[dP]GG[NMeF]Y)) |
| 0.082 | 0.059 | 0.044 | CN1C(=O)CNC(=O)[C@H](CCCCN)NC(=O)[C@H]2CCCN2C(=O)[C@H](CC(=O)O)NC(=O)[C@H](Cc2ccc(O)cc2)NC(=O)CNC(=O)[C@H](Cc2c[nH]c3ccccc23)NC(=O)[C@H](CCC(=O)N2CC(F)(F)C[C@H]2C#N)NC(=O)[C@H](Cc2ccc(O)cc2)NC(=O)[C@@H]1Cc1ccccc1 [Example A29, Lys-Gly-NMePhe-Tyr-Q(Pyrro(2CN4F2))-Trp-Gly-Tyr-Asp-D-Pro] (cyclo(KG[NMeF]YE(Pyrrolidine(2S-CN,4,4-F2))WGYD[dP])) |
| 31 | 4.2 | 32 | CCCCC[C@@H]1NC(=O)[C@H](Cc2ccc(O)cc2)NC(=O)[C@H](Cc2ccccc2)N(C)C(=O)CNC(=O)CNC(=O)[C@H]2CCCN2C(=O)[C@H](C)NC(=O)[C@H](Cc2ccc(O)cc2)NC(=O)CNC(=O)[C@H](Cc2c[nH]c3ccccc23)NC1=O [Example A56, Gly-Gly-NMePhe-Tyr-Ahp-Trp-Gly-Tyr-Ala-D-Pro] (cyclo(A[dP]GG[NMeF]Y[Ahp(2)]WGY)) |
| 0.66 | 0.145 | 0.26 | CCCCC[C@@H]1NC(=O)[C@H](Cc2ccc(O)cc2)NC(=O)[C@H](Cc2ccccc2)N(C)C(=O)CNC(=O)[C@H](CO)NC(=O)[C@H]2CCCN2C(=O)[C@H](CC(=O)O)NC(=O)[C@H](Cc2ccc(O)cc2)NC(=O)CNC(=O)[C@H](Cc2c[nH]c3ccccc23)NC1=O [Example A19, Ser-Gly-NMePhe-Tyr-Ahp-Trp-Gly-Tyr-Asp-D-Pro] (cyclo([Ahp(2)]WGYD[dP]SG[NMeF]Y)) |
| 0.024 | 0.009 | 0.048 | Gly-Gly-NMePhe-F4(METRIAZOLYLMENHDOTA-Lu)-Ahp-Trp-Gly-Tyr-Asp-D-Pro (cyclo(GG[NMeF][F4(METRIAZOLYLMENHDOTA-Lu)][Ahp(2)]WGYD[dP]); also: Lu complex) [Example C14] |
| 0.059 | 0.013 | 0.035 | Gly-Gly-NMePhe-F(4OEtNHDOTA-Lu)-Ahp-Trp-Gly-3PyA(6NH2)-Asp-D-Pro (cyclo(GG[NMeF][F(4OEtNHDOTA-Lu)][Ahp(2)]WG[3Pal(6-NH2)]D[dP]); also: Lu complex of DOTA) [Example C24] |

| Compound | IC50 [1] [nM] | IC50 [2] [nM] | Kd [3] [nM] |
| --- | --- | --- | --- |
| CCCCC[C@@H]1NC(=O)[C@H](Cc2ccc(OCCNC(=O)CN3CCN(CC(=O)O)CCN(CC(=O)O)CCN(CC(=O)O)CC3)cc2)NC(=O)[C@H](Cc2ccccc2)N(C)C(=O)CNC(=O)CNC(=O)[C@H]2CCCN2C(=O)[C@H](CC(=O)O)NC(=O)[C@H](Cc2ccc(N)nc2)NC(=O)CNC(=O)[C@H](Cc2c[nH]c3ccccc23)NC1=O [Example B24, Gly-Gly-NMePhe-F(4OEtNHDOTA)-Ahp-Trp-Gly-3PyA(6NH2)-Asp-D-Pro, TFA salt] (cyclo([AEF](DOTA)[Ahp(2)]WG[3Pal(6-NH2)]D[dP]GG[NMeF])) | 0.108 | 0.012 | 0.066 |
